The structures appear in SMILES notation.

This passage reports IC50 results from patent US20130210846A1, “USE OF NOVEL PAN-CDK INHIBITORS FOR TREATING TUMORS” (BAYER INTELLECTUAL PROPERTY GMBH, priority 2010, published 2013).

One test concerns HCT116. Description: Proliferation assay HCT116. In kind it is cell-based. To be noted: Homo sapiens, HCT-116, 96 h; HCT116, colon/rectum carcinoma; 4 days, crystal violet. As for the experimental part:
(§1) Cultivated human tumor cells (originally obtained from ATCC, HeLa-MaTu and HeLa-MaTu-ADR, originally obtained from Epo GmbH, Berlin, Germany) were plated at a density of 1000 to 5000 cells/measuring point, depending on the growth rate of the cell line, in a 96-well multititer plate in 200 μl of growth medium (DMEM/HAMS F12, 2 mM L-glutamine, 10% fetal calf serum). After 24 hours the cells of one plate (zero-point plate) were stained with crystal violet (see below), whereas the medium of the other plates was replaced with fresh culture medium (200 μl), to which the test substances had been added at various concentrations (0 μM, and in the range 0.01-30 μM; the final concentration of the solvent dimethyl sulfoxide was 0.5%). The cells were incubated for 4 days in the presence of the test substances. Cellular proliferation was determined by staining the cells with crystal violet: the cells were fixed by adding 20 μl/measuring point of an 11% glutaraldehyde solution for 15 min at room temperature. After washing the fixed cells with water three times, the plates were dried at room temperature. The cells were stained by adding 100 μl/measuring point of a 0.1% crystal violet solution (pH adjusted to pH3 by adding acetic acid). After washing the stained cells with water three times, the plates were dried at room temperature. The dye was dissolved by adding 100 μl/measuring point of a 10% acetic acid solution. The extinction was determined photometrically at a wavelength of 595 nm. The percentage change in cell growth was calculated by standardization of the measured values to the extinction values of the zero-point plate (=0%) and the extinction of the untreated (0 μM) cells (=100%). The measured data were standardized to 0% inhibition (cell proliferation without inhibitor) and 100% inhibition (zero-point plate). The IC50 values were determined by means of a 4-parameter fit using the company's own software.
(§2) The substances were examined in the following cell lines which, in an exemplary manner, represent the stated indications: […]

In another test the target is T1, CDK2/CycE (Homo sapiens, UniProt P24941).
T1 construct: purchased ProQinase GmbH, Freiburg, Germany; host or cells: baculovirus-infected insect cells (Sf9)
The test is described as follows: CDK2/CycE kinase assay (Assay 2). The test is classed as biochemical. To be noted: 0.5 μM ATP, histon IIIS, 10 min 22° C.; read-out: CDK2/CycE (Assay 2) Concentration for half-maximal inhibition of the enzyme activity, IC50. The procedure:
Recombinant CDK2 and CycE-GST fusion proteins, purified from baculovirus-infected insect cells (Sf9), were purchased from ProQinase GmbH, Freiburg, Germany. Histon HIS, used as kinase substrate, was purchased from Sigma.
The reaction was stopped by adding EDTA solution (250 mM, pH 8.0, 15 μl/measuring point).
From each reaction mixture, 15 μl was applied to P30 filter strips (from Wallac), and unincorporated ^33P-ATP was removed by washing the filter strips three times, for 10 min each time, in 0.5% phosphoric acid. After drying the filter strips for 1 hour at 70° C., the filter strips were covered with scintillator strips (MeltiLex™ A, from Wallac) and stoved for 1 hour at 90° C. The amount of incorporated ^33P (substrate phosphorylation) was determined by scintillation measurement in a gamma-radiation measuring instrument (Wallac). […] The IC50 values were determined by means of a 4-parameter fit using the company's own software.

For the next test, the target named is T2, CDK1/CycB (Homo sapiens, UniProt P06493).
T2 construct: purchased ProQinase GmbH, Freiburg, Germany; host or cells: baculovirus-infected insect cells (Sf9)
T2 sequence (P06493 whole entry): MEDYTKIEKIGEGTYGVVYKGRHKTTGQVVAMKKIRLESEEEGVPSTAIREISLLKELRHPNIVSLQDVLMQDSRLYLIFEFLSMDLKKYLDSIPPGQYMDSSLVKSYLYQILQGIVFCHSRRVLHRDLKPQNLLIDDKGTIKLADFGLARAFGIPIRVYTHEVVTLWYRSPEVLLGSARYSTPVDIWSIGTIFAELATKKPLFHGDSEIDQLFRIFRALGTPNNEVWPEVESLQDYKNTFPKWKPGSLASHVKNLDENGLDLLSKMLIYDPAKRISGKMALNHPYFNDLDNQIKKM
T2 sequence (P14635 whole entry partner): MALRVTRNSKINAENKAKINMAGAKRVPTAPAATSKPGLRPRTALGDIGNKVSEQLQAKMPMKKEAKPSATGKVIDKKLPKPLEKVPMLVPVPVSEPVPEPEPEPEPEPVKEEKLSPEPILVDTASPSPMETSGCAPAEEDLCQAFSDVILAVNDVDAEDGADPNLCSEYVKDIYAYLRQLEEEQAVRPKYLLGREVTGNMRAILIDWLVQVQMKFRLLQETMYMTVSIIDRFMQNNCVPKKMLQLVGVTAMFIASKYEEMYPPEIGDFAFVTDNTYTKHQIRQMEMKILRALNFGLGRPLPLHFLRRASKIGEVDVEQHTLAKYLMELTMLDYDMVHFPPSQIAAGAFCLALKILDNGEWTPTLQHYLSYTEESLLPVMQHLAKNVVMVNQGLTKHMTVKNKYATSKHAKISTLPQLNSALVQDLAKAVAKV
The test is described as follows: CDK1/CycB kinase assay (Assay 1). In kind it is biochemical. Particulars: 0.5 μM ATP, histon IIIS, 10 min 22° C.; read-out: CDK1/CycB (Assay 1) Concentration for half-maximal inhibition of the enzyme activity, IC50. The procedure: Recombinant CDK1 and CycB-GST fusion proteins, purified from baculovirus-infected insect cells (Sf9), were purchased from ProQinase GmbH, Freiburg, Germany. The histon HIS used as kinase substrate is commercially available from Sigma.
CDK1/CycB (200 ng/measuring point) was incubated for 10 min at 22° C. in the presence of various concentrations of test substances (0 μM, and within the range 0.01-100 μM) in assay buffer [50 mM Tris/HCl pH8.0, 10 mM MgCl2, 0.1 mM Na ortho-vanadate, 1.0 mM dithiothreitol, 0.5 μM adenosine triphosphate (ATP), 10 μg/measuring point histon IIIS, 0.2 μCi/measuring point ^33P-gamma ATP, 0.05% NP40, 1.25% dimethyl sulfoxide]. The reaction was stopped by adding EDTA solution (250 mM, pH 8.0, 15 μl/measuring point).
(§3) From each reaction mixture, 15 μl were applied to P30 filter strips (from Wallac), and unincorporated ^33P-ATP was removed by washing the filter strips three times, for 10 min each time, in 0.5% phosphoric acid. After drying the filter strips for 1 hour at 70° C., the filter strips were covered with scintillator strips (MeltiLex™ A, from Wallac) and stoved for 1 hour at 90° C. The amount of incorporated ^33P (substrate phosphorylation) was determined by scintillation measurement in a gamma-radiation measuring instrument (Wallac). The measured data were standardized to 0% inhibition (enzyme reaction without inhibitor) and 100% inhibition (all assay components except enzyme). The IC50 values were determined by means of a 4-parameter fit using the company's own software.

The next test has as its system SW480. Description: Proliferation assay SW480. Particulars: Homo sapiens, 96 h; SW480, colon/rectum carcinoma; 4 days, crystal violet. In kind it is cell-based. The procedure: as §1, §2
The subject of a further test is HeLa. The test is described as follows: Proliferation assay HeLa. The test is classed as cell-based. Particulars: Homo sapiens, 96 h, cervix carcinoma, 4 days, crystal violet. The procedure: as §1, §2
Test [1] concerns the target T3, VEGF receptor tyrosine kinase-2 (VEGF-R2) (Homo sapiens, UniProt P35968).
T3 construct: GST; made in house; host or cells: baculovirus-infected insect cells (Sf9)
The test is described as follows: VEGF receptor-2 kinase assay (Assay 3). In kind it is biochemical. To be noted: 8 μM ATP, poly-(Glu4Tyr), 10 min 22° C.; read-out: VEGF-R2 (Assay 3) Concentration for half-maximal inhibition of the enzyme activity, IC50. As for the experimental part: Recombinant VEGF receptor tyrosine kinase-2 was purified as GST fusion protein from baculovirus-infected insect cells (Sf9). Poly-(Glu4Tyr), used as kinase substrate, was purchased from Sigma.
VEGF receptor tyrosine kinase (90 ng/measuring point) was incubated for 10 min at 22° C. in the presence of various concentrations of test substances (0 μM, and within the range 0.001-30 μM) in 30 μl assay buffer [40 mM Tris/HCl pH5.5, 10 mM MgCl2, 1 mM MnCl2, 3 μM Na ortho-vanadate, 1.0 mM dithiothreitol, 8 μM adenosine triphosphate (ATP), 0.96 μg/measuring point poly-(Glu4Tyr), 0.2 μCi/measuring point ^33P-gamma ATP, 1.4% dimethyl sulfoxide]. The reaction was stopped by adding EDTA solution (250 mM, pH 8.0, 15 μl/measuring point).
as §3, with “μl was” for “μl were”

T3 sequence (P35968 20-1356, species assumed): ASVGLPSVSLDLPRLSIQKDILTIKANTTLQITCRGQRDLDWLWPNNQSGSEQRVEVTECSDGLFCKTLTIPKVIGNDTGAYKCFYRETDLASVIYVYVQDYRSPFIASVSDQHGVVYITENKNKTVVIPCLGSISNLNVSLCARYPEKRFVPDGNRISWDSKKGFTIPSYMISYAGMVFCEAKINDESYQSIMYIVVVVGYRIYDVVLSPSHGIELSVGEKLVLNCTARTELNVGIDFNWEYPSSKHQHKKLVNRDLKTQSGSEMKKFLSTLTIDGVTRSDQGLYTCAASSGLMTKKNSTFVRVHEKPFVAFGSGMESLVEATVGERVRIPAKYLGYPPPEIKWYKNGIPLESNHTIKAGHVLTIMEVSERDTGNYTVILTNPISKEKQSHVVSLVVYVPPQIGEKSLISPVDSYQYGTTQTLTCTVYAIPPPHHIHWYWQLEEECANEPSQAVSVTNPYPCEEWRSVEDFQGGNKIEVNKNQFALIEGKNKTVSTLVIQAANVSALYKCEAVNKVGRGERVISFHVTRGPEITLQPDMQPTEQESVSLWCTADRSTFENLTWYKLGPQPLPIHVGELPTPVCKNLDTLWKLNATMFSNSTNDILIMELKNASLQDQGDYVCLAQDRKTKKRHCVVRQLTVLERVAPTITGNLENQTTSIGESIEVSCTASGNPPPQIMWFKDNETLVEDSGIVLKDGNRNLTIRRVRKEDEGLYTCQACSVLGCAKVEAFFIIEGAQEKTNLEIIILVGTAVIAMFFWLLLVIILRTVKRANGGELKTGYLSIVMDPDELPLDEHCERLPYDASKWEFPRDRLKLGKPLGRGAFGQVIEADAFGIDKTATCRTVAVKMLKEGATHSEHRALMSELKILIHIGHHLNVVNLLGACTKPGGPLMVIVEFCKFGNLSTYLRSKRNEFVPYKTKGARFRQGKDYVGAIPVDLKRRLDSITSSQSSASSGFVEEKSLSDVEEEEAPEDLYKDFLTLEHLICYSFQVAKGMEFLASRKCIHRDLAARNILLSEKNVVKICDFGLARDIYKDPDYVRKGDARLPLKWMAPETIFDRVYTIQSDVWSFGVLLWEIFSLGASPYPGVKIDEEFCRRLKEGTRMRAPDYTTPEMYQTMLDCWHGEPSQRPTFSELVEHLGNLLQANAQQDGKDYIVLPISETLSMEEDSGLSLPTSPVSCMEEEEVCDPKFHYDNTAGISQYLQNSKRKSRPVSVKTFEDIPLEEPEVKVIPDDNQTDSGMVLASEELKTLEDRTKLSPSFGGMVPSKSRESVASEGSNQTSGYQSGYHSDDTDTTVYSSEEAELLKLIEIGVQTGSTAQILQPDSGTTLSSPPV

For the molecule `CCS(=N)(=O)c1ccc(Nc2ncc(C(F)(F)F)c(N[C@H](C)C(C)(C)O)n2)cc1` (single isomer, unassigned) [Example 7-SI-2], the IC50 was 17 nM in the test with HCT116; 5 nM on CDK2/CycE; 7 nM at CDK1/CycB; 45 nM with SW480; 33 nM in the test on HeLa; 136 nM in test [1].

Consider `C[C@@H](O)[C@@H](C)Nc1nc(Nc2ccc(S(C)(=N)=O)cc2)ncc1C(F)(F)F` (single isomer, unassigned) [Example 8-SI-2], for which the IC50 was 17 nM in the test with HCT116; 4 nM at CDK2/CycE; 3 nM at CDK1/CycB; 31 nM in the test with SW480; 25 nM with HeLa; 81 nM in test [1].
